Test results as given in US20250129430A1, “HIGH ATP-AFFINITY PROTEIN AS THERAPEUTIC TARGET FOR INTRACTABLE CANCER MOLECULAR SUBTYPES AND INHIBITOR THEREOF” (VeraVerse Co., Ltd., priority 2021, published 2025).
Counter-ions that a name gives are not always drawn.

Columns and labels:
Assay type in all cases: cell-based, human
[1] = system: FU97; assay: Cell viability drug screen, 12-point dose-response AUC; design: Average Area Under the Viability Curve (AUC), AUC norm value: scale not given here; conditions: FU97 cells, 72 hours
In short: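 Trapezoidal AUC of a 12-point, DMSO-normalized dose-response curve. Luminescent viability was measured after 72 h of exposure at 37° C to half-log serial dilutions (0.5% DMSO control), dosed 24 h after plating FU97 cells at 5×10^3 per well.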

[2] = system: SNU1967; assay: as above; conditions: SNU1967 cells, 72 hours
In short: (§1)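 Gastric cancer lines seeded 5×10^3 cells/well, dosed after 24 h with half-log 12-point compound dilutions (DMSO 0.5% control), then 72 h at 37 °C. Viability by luminescence, normalized to DMSO; AUC by trapezoidal method, averaged over repeats.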

[3] = system: YCC11; assay: as above; conditions: 72 hours; for Average Area Under the Viability Curve (AUC), AUC norm value: YCC11 cells (SEM subtype)
In short: as §1

[4] = system: NCC19; assay: as above; conditions: NCC19 cells, 72 hours
In short: as §1

[5] = system: MKN45; assay: as above; conditions: 72 hours; for Average Area Under the Viability Curve (AUC), AUC norm value: MKN45 cells (non-SEM subtype)
In short: (§2)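 Each cell line receives a twelve-point half-log titration of drug beginning 24 h after plating 5×10^3 cells per well. Following 72 h culture at 37 °C, luminescent signal is recorded and expressed versus vehicle. AUC is derived by the trapezoidal method.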

[6] = system: SNU16; assay: as above; conditions: SNU16 cells, 72 hours
In short: as §1

[7] = system: OCUM1; assay: as above; conditions: OCUM1 cells, 72 hours
In short: as §1

[8] = system: SNU484; assay: as above; conditions: 72 hours; for Average Area Under the Viability Curve (AUC), AUC norm value: SNU484 cells (SEM subtype)
In short: as §1

[9] = system: NCC20; assay: as above; conditions: NCC20 cells, 72 hours
In short: as §1

[10] = system: MKN74; assay: as above; conditions: MKN74 cells, 72 hours
In short: as §2

[11] = system: MKN28; assay: as above; conditions: MKN28 cells, 72 hours
In short: as §1

[12] = system: MKN1; assay: as above; conditions: MKN1 cells, 72 hours
In short: as §1

[13] = system: SNU719; assay: as above; conditions: SNU719 cells, 72 hours
In short: as §2

[14] = system: SNU668; assay: as above; conditions: 72 hours; for Average Area Under the Viability Curve (AUC), AUC norm value: SNU668 cells (SEM subtype)
In short: as §1

[15] = system: SNU1750; assay: as above; conditions: 72 hours; for Average Area Under the Viability Curve (AUC), AUC norm value: SNU1750 cells (SEM subtype)
In short: as §1

[16] = system: SNU216; assay: as above; conditions: 72 hours; for Average Area Under the Viability Curve (AUC), AUC norm value: SNU216 cells (non-SEM subtype)
In short: as §2

[17] = system: Hs746T; assay: as above; conditions: 72 hours; for Average Area Under the Viability Curve (AUC), AUC norm value: Hs746T cells (SEM subtype)
In short: as §1

[18] = system: NCC24; assay: as above; conditions: NCC24 cells, 72 hours
In short: as §1

[19] = system: SK4; assay: as above; conditions: 72 hours; for Average Area Under the Viability Curve (AUC), AUC norm value: SK4 cells (SEM subtype)
In short: as §1

[20] = system: NCI_N87; assay: as above; conditions: NCI_N87 cells, 72 hours
In short: as §1

[21] = system: AGS; assay: as above; conditions: 72 hours; for Average Area Under the Viability Curve (AUC), AUC norm value: AGS cells (non-SEM subtype)
In short: as §2

[22] = system: SNU638; assay: as above; conditions: SNU638 cells, 72 hours
In short: as §1

[23] = system: KATO3; assay: as above; conditions: KATO3 cells, 72 hours
In short: as §1

[24] = system: YCC3; assay: as above; conditions: YCC3 cells, 72 hours
In short: as §1

[25] = system: SNU620; assay: as above; conditions: SNU620 cells, 72 hours
In short: as §1

[26] = system: SNU1; assay: as above; conditions: SNU1 cells, 72 hours
In short: as §1

[27] = system: SNU601; assay: as above; conditions: SNU601 cells, 72 hours
In short: as §1

[28] = system: YCC2; assay: as above; conditions: YCC2 cells, 72 hours
In short: as §1

[29] = system: NCC59; assay: as above; conditions: NCC59 cells, 72 hours
In short: as §1

[30] = system: non-SEM-type gastric cancer cell line; assay: Cell viability drug screen, AUC summary over non-SEM-type lines; conditions: in the non-SEM-type gastric cancer cell line

COC(=O)Nc1nc2ccc(Sc3ccccc3)cc2[nH]1 [Fenbendazole]
area under the viability curve (AUC), normalized ([1]; 12-point dose-response): −1.854 | area under the viability curve (AUC), normalized ([2]; 12-point dose-response): 0.184 | area under the viability curve (AUC), normalized ([3]; YCC11 cells, 12-point dose-response): −0.7305 | area under the viability curve (AUC), normalized ([4]; 12-point dose-response): −0.2779 | area under the viability curve (AUC), normalized ([5]; MKN45 cells, 12-point dose-response): 1.407 | area under the viability curve (AUC), normalized ([6]; 12-point dose-response): 1.2297 | area under the viability curve (AUC), normalized ([7]; 12-point dose-response): 1.283 | area under the viability curve (AUC), normalized ([8]; SNU484 cells, 12-point dose-response): −0.08111 | area under the viability curve (AUC), normalized ([9]; 12-point dose-response): −0.5211 | area under the viability curve (AUC), normalized ([10]; 12-point dose-response): −0.2802 | area under the viability curve (AUC), normalized ([11]; 12-point dose-response): −0.7877 | area under the viability curve (AUC), normalized ([12]; 12-point dose-response): −0.0568 | area under the viability curve (AUC), normalized ([13]; 12-point dose-response): 3.382 | area under the viability curve (AUC), normalized ([14]; SNU668 cells, 12-point dose-response): 0 | area under the viability curve (AUC), normalized ([15]; SNU1750 cells, 12-point dose-response): 0.2596 | area under the viability curve (AUC), normalized ([16]; SNU216 cells, 12-point dose-response): 1.005 | area under the viability curve (AUC), normalized ([17]; Hs746T cells, 12-point dose-response): 0.5728 | area under the viability curve (AUC), normalized ([18]; 12-point dose-response): −0.8488 | area under the viability curve (AUC), normalized ([19]; SK4 cells, 12-point dose-response): −0.2953 | area under the viability curve (AUC), normalized ([20]; 12-point dose-response): −1.124 | area under the viability curve (AUC), normalized ([21]; AGS cells, 12-point dose-response): −1.16 | area under the viability curve (AUC), normalized ([22]; 12-point dose-response): −0.3689 | area under the viability curve (AUC), normalized ([23]; 12-point dose-response): 2.344 | area under the viability curve (AUC), normalized ([24]; 12-point dose-response): 1.376 | area under the viability curve (AUC), normalized ([25]; 12-point dose-response): −1.425 | area under the viability curve (AUC), normalized ([26]; 12-point dose-response): 0.1629 | area under the viability curve (AUC), normalized ([27]; 12-point dose-response): 0.599 | area under the viability curve (AUC), normalized ([28]; 12-point dose-response): 0.5695 | area under the viability curve (AUC), normalized ([29]; 12-point dose-response): 1.9513 | AUC value [30]: high

c1ccc2c(-c3cnn4cc(-c5ccc(N6CCNCC6)cc5)cnc34)ccnc2c1 [LDN193189]
Average Area Under the Viability Curve (AUC), AUC norm value [1]: −0.1434 | Average Area Under the Viability Curve (AUC), AUC norm value [2]: −1.419 | Average Area Under the Viability Curve (AUC), AUC norm value [3]: −0.7359 | Average Area Under the Viability Curve (AUC), AUC norm value [4]: 0.06094 | Average Area Under the Viability Curve (AUC), AUC norm value [5]: 0.9516 | Average Area Under the Viability Curve (AUC), AUC norm value [6]: 1.525 | Average Area Under the Viability Curve (AUC), AUC norm value [7]: −1.113 | Average Area Under the Viability Curve (AUC), AUC norm value [8]: −0.5999 | Average Area Under the Viability Curve (AUC), AUC norm value [9]: 0.02059 | Average Area Under the Viability Curve (AUC), AUC norm value [10]: −1.246 | Average Area Under the Viability Curve (AUC), AUC norm value [11]: 0.5758 | Average Area Under the Viability Curve (AUC), AUC norm value [12]: 0 | Average Area Under the Viability Curve (AUC), AUC norm value [13]: 0.6043 | Average Area Under the Viability Curve (AUC), AUC norm value [14]: 0.06394 | Average Area Under the Viability Curve (AUC), AUC norm value [15]: −0.4695 | Average Area Under the Viability Curve (AUC), AUC norm value [16]: −0.7838 | Average Area Under the Viability Curve (AUC), AUC norm value [17]: −0.2954 | Average Area Under the Viability Curve (AUC), AUC norm value [18]: −0.1464 | Average Area Under the Viability Curve (AUC), AUC norm value [19]: −0.5339 | Average Area Under the Viability Curve (AUC), AUC norm value [20]: 1.172 | Average Area Under the Viability Curve (AUC), AUC norm value [21]: −0.1896 | Average Area Under the Viability Curve (AUC), AUC norm value [22]: −0.9699 | Average Area Under the Viability Curve (AUC), AUC norm value [23]: 0.6205 | Average Area Under the Viability Curve (AUC), AUC norm value [24]: 0.08342 | Average Area Under the Viability Curve (AUC), AUC norm value [25]: −2.131 | Average Area Under the Viability Curve (AUC), AUC norm value [26]: 0.8706 | Average Area Under the Viability Curve (AUC), AUC norm value [27]: 3.699 | Average Area Under the Viability Curve (AUC), AUC norm value [28]: 0.1163 | Average Area Under the Viability Curve (AUC), AUC norm value [29]: 1.892 | AUC value [30]: high

COC1=CC(c2cc3ccccc3[nH]2)=N/C1=C\c1[nH]c(C)cc1C [Obatoclax mesylate (GX15-070), Obatoclax mesylate]
Average Area Under the Viability Curve (AUC), AUC norm value [1]: −1.5029 | Average Area Under the Viability Curve (AUC), AUC norm value [2]: −0.4093 | Average Area Under the Viability Curve (AUC), AUC norm value [3]: −0.8407 | Average Area Under the Viability Curve (AUC), AUC norm value [4]: 1.604 | Average Area Under the Viability Curve (AUC), AUC norm value [5]: 0.9313 | Average Area Under the Viability Curve (AUC), AUC norm value [6]: 1.841 | Average Area Under the Viability Curve (AUC), AUC norm value [7]: 0.1302 | Average Area Under the Viability Curve (AUC), AUC norm value [8]: −1.4 | Average Area Under the Viability Curve (AUC), AUC norm value [9]: −0.9868 | Average Area Under the Viability Curve (AUC), AUC norm value [10]: −1.051 | Average Area Under the Viability Curve (AUC), AUC norm value [11]: −0.3769 | Average Area Under the Viability Curve (AUC), AUC norm value [12]: 0.7857 | Average Area Under the Viability Curve (AUC), AUC norm value [13]: 2.585 | Average Area Under the Viability Curve (AUC), AUC norm value [14]: −0.2715 | Average Area Under the Viability Curve (AUC), AUC norm value [15]: −0.872 | Average Area Under the Viability Curve (AUC), AUC norm value [16]: −0.1398 | Average Area Under the Viability Curve (AUC), AUC norm value [17]: 0 | Average Area Under the Viability Curve (AUC), AUC norm value [18]: 0.2511 | Average Area Under the Viability Curve (AUC), AUC norm value [19]: −1.531 | Average Area Under the Viability Curve (AUC), AUC norm value [20]: 0.636 | Average Area Under the Viability Curve (AUC), AUC norm value [21]: −0.9005 | Average Area Under the Viability Curve (AUC), AUC norm value [22]: −0.5094 | Average Area Under the Viability Curve (AUC), AUC norm value [23]: 1.383 | Average Area Under the Viability Curve (AUC), AUC norm value [24]: 2.281 | Average Area Under the Viability Curve (AUC), AUC norm value [25]: 0.8129 | Average Area Under the Viability Curve (AUC), AUC norm value [26]: 0.5238 | Average Area Under the Viability Curve (AUC), AUC norm value [27]: 2.791 | Average Area Under the Viability Curve (AUC), AUC norm value [28]: −0.5916 | Average Area Under the Viability Curve (AUC), AUC norm value [29]: 2.5912 | AUC value [30]: high
